Assay results reported in ChEMBL document CHEMBL5316369, “From the Spectroscopic Reassessment of Authentic Alkaloid Samples to the Molecular Networking-Guided Discovery of Criophylline-Related Analogues from Callichilia inaequalis” (J Nat Prod, 2023).

Tested on: Plasmodium falciparum
Test: Antiparasitic activity against chloroquine-resistant Plasmodium falciparum FcB1 assessed as inhibition of parasite growth incubated for 24 hrs by liquid scintillation spectrometer analysis
Type: functional, organism-based
Details: FcB1, 24 h

SMILES | IC50 [µM]
CC[C@@]12CC[C@@]34Nc5ccc([C@@H]6[C@H]7O[C@H]7[C@]7(CC)CC(C(=O)OC)=C8Nc9ccccc9[C@@]89CCN6[C@@H]79)cc5[C@@H]3CCN(C[C@H](O)[C@H]1O)[C@@H]24 | 2.9
CC[C@@]12CC[C@@]34Nc5ccc([C@@H]6[C@H]7O[C@H]7[C@]7(CC)CC(C(=O)OC)=C8Nc9ccccc9[C@@]89CCN6[C@@H]79)cc5[C@@H]3CCN(C[C@H]3O[C@H]31)[C@@H]24 | 54.5
CC[C@@]12CC[C@@]34Nc5ccc([C@@H]6[C@H]7O[C@H]7[C@]7(CC)CC(C(=O)OC)=C8Nc9ccccc9[C@@]89CCN6[C@@H]79)cc5[C@@H]3CCN(C[C@H](OS(=O)(=O)O)[C@H]1O)[C@@H]24 | 14.3
